Series [1] deals with HDACs (HeLa cell nuclear extracts). Kind of series: HDAC enzymatic activity inhibition assay (Biomol Color de Lys system). In kind it is biochemical. The following applies: class symbols. On the procedure: HDAC inhibitory activity was assessed using the Biomol Color de Lys system (AK-500, Biomol, Plymouth Meeting, Pa.). Briefly, HeLa cell nuclear extracts were used as a source of HDACs. Different concentrations of test compounds were serially diluted in dimethylsulfoxide (DMSO) and added to HeLa cell nuclear extracts in the presence of a colorimetric artificial substrate. […] Reactions were carried out at room temperature (25° C.) for 1 hour before addition of developer for termination. […] Data were analyzed using GraphPad Prism (v4.0a) with a sigmoidal dose response curve fitting for IC50 calculation.

Series [2] relates to Hedgehog pathway signaling (Gli-Luc response, OCT-SHH activated 10 Tl/2 (s12) cells). Kind of series: Hedgehog signalling inhibition, Gli-Luc reporter assay (Hh Reporter assay). In kind it is cell-based. Here is the method:
Example 17: An In Vitro Assay which Determines the Ability of a Test Compound to Inhibit Hedgehog Signalling
Compounds to be tested were dissolved in DMSO to a concentration of 10 mM, and stored at −20° C. To activate the Hedgehog pathway in the assay cells, an octylated (lipid-modified) form of the N-terminal fragment of the Sonic Hedgehog protein (OCT-SHH) was used. This N-terminal SHH fragment is produced bacterially. See, for example, Taylor F R, et al., Biochemistry, 2001, 40: 4359-71.
Compounds were tested in the“Gli-Luc” assay below, using the cell line 10 Tl/2 (s12), wherein the cells contain a Hedgehog-responsive reporter construct utilizing Luciferase as the reporter gene. In this way, Hedgehog pathway signaling activity is measured via the Gli-Luc response.
10 Tl/2 (s12) cells were plated in a 96-well micro-titer plate (MTP) at 20,000 cells/well in full medium [DMEM with 10% FBS]. Then plates were placed in the incubator for incubation overnight (0/N), at 37° C. and 5% CO2. After 24 h, the medium was replaced with Luciferase-assay medium (DMEM with 0.5% FBS). Test compounds were thawed and diluted in assay medium at 3:1000 (about 300-fold) resulting in a starting concentration of about 0.0003 uM to 30 uM. Subsequently, 150 ul of each sample was added to the first wells (in triplicate). The MTP samples were then diluted at 3-fold dilutions to a total of seven wells, ultimately resulting in a regiment of seven dilutions in triplicate, for each compound. Next, the protein ligand OCT-SHH was diluted in Luciferase-assay medium and added to each well at a final concentration of 0.3 μg/ml. Plates were then returned to the incubator for further incubation O/N, at 37° C. and 5% CO2. After about 24 h, plates were removed from the incubator and the medium was aspirated/discarded.
Wells were washed once with assay buffer [PBS+1 mM Mg^2+ and 1 mM Ca^2+]. Then 50 μl of assay buffer was added to each well. The Luciferase assay reagent was prepared as described by the vendor (LucLite kit from Packard), and 50 μl was added to each well. Plates were incubated at room temperature (RT) for about 30 minutes after which the signals were read, again at RT, on a Topcount (Packard). […]
On the technique in general: Reporter assays use an easily measured gene product as a stand-in for the process of interest.

[3] abbreviates: S12, Gli-Luc reporter, class symbols.

Where “and” joins values, the source holds several entries; their conditions need not be identical. Equal entries are not always repeated. Some results are limits rather than exact numbers.

Turning to `CS(=O)(=O)c1ccc(C(=O)Nc2ccc(Cl)c(-c3ccc(/C=C/C(=O)NO)cn3)c2)c(Cl)c1` [Compound 1, (E)-2-chloro-N-(4-chloro-3-(5-(3-(hydroxyamino)-3-oxoprop-1-enyl)pyridin-2-yl)phenyl)-4-(methylsulfonyl)benzamide], the IC50 in series [1] and in series [2] (setting [3]) was 100 to 1000 nM throughout.

As to `CS(=O)(=O)c1ccc(C(=O)Nc2ccc(Cl)c(-c3ccc(C(=O)NO)cn3)c2)c(Cl)c1` [Compound 5, 6-(2-Chloro-5-(2-chloro-4-(methylsulfonyl)benzamido)phenyl)-N-hydroxynicotinamide], the IC50 in series [1] and in series [2] (setting [3]) was 100 to 1000 nM each time.

For `CS(=O)(=O)c1ccc(C(=O)Nc2ccc(Cl)c(-c3ncc(C(=O)NO)cn3)c2)c(Cl)c1` [Compound 7, 2-[2-Chloro-5-(2-chloro-4-methanesulfonyl-benzoylamino)-phenyl]-pyrimidine-5-carboxylic acid hydroxyamide], the IC50 (commonly the concentration at which inhibition is half-maximal) in series [1] is 100 to 1000 nM; in series [2] (setting [3]) it was above 1000 nM.

For the compound `CS(=O)(=O)c1ccc(C(=O)Nc2ccc(Cl)c(-c3ccc(OCCCCCCC(=O)NO)cn3)c2)c(Cl)c1` [Compound 23, 2-Chloro-N-{4-chloro-3-[5-(6-hydroxycarbamoyl-hexyloxy)-pyridin-2-yl]-phenyl}-4-methanesulfonyl-benzamide], the melting point (usually the temperature of the solid-liquid transition) lay within 140 to 145 °C. In addition, the half-maximal inhibitory concentration (IC50) in series [1] was in the range of 10 to 100 nM. The IC50 in series [2] (setting [3]) was 100 to 1000 nM.

For `O=C(CCCCCCNS(=O)(=O)c1ccc(C(=O)Nc2ccc(Cl)c(-c3ccccn3)c2)c(Cl)c1)NO` [Compound 59, 2-Chloro-N-(4-chloro-3-(pyridin-2-yl)phenyl)-4-(N-(7-(hydroxyamino)-7-oxoheptyl)sulfamoyl)benzamide], the results for the IC50 in series [1] and in series [2] (setting [3]) were 100 to 1000 nM and 10 to 100 nM, respectively.

Regarding `O=C(NO)c1cnc(N2CCC(CNS(=O)(=O)c3ccc(C(=O)Nc4ccc(Cl)c(-c5ccccn5)c4)c(Cl)c3)CC2)nc1` [Compound 90, 2-(4-((3-Chloro-4-(4-chloro-3-(pyridin-2-yl)phenylcarbamoyl)phenylsulfonamido)methyl)piperidin-1-yl)-N-hydroxypyrimidine-5-carboxamide], the melting point fell in the range of 172 to 173 °C. Besides, in series [1], the IC50 lay within 10 to 100 nM. The compound also returned a half-inhibitory concentration (IC50) in series [2] (setting [3]) of 1 to 10 nM.

Take `Cc1nc(NCC2CCN(c3ncc(C(=O)NO)cn3)CC2)ccc1C(=O)Nc1ccc(Cl)c(-c2nc3ccccc3[nH]2)c1` [Compound 91, 2-(4-((5-(3-(1H-Benzo[d]imidazol-2-yl)-4-chlorophenylcarbamoyl)-6-methylpyridin-2-ylamino)methyl)piperidin-1-yl)-N-hydroxypyrimidine-5-carboxamide]: the melting point is 194 to 196 °C. The compound also came in with an IC50 in series [1] of 10 to 100 nM. This compound also displayed an IC50 in series [2] (setting [3]) of 10 to 100 nM.

For `CN(C)c1ccc2[nH]c(-c3cc(NC(=O)c4cccc(OCCCCCCC(=O)NO)c4)ccc3Cl)nc2c1` [Compound 111, N-(4-Chloro-3-(5-(dimethylamino)-1H-benzo[d]imidazol-2-yl)phenyl)-3-(7-(hydroxyamino)-7-oxoheptyloxy)benzamide], the half-inhibitory concentration (IC50) in series [1] was 10 to 100 nM; in series [2] (setting [3]), 100 to 1000 nM.

Take `O=C(/C=C/c1cccc(NS(=O)(=O)c2ccc(C(=O)Nc3ccc(Cl)c(-c4ccccn4)c3)c(Cl)c2)c1)NO` [Compound 254, (E)-2-Chloro-N-(4-chloro-3-(pyridin-2-yl)phenyl)-4-(N-(3-(3-(hydroxyamino)-3-oxoprop-1-enyl)phenyl)sulfamoyl)benzamide]: the values for the IC50 in series [1] and in series [2] (setting [3]) were 100 to 1000 nM and 10 to 100 nM, respectively.

In turn, `COc1cc(CNc2ncc(C(=O)NO)cn2)cc(C(=O)Nc2ccc(Cl)c(-c3nc4cc(N(C)C)ccc4[nH]3)c2)c1` [Compound 258, 2-(3-(4-Chloro-3-(5-(dimethylamino)-1H-benzo[d]imidazol-2-yl)phenylcarbamoyl)-5-methoxybenzylamino)-N-hydroxypyrimidine-5-carboxamide] yielded a melting point of 158 to 159 °C. In series [1], the IC50 lay within 10 to 100 nM. This compound also had an IC50 in series [2] (setting [3]) of 10 to 100 nM.

As for `COc1cc(CN(C)c2ncc(C(=O)NO)cn2)cc(C(=O)Nc2ccc(Cl)c(-c3nc4cc(N(C)C)ccc4[nH]3)c2)c1` [Compound 259, 2-((3-(4-Chloro-3-(5-(dimethylamino)-1H-benzo[d]imidazol-2-yl)phenylcarbamoyl)-5-methoxybenzyl)(methyl)amino)-N-hydroxypyrimidine-5-carboxamide], the half-inhibitory concentration (IC50) in series [1] and in series [2] (setting [3]) was 10 to 100 nM in each case.

For the compound `CN(Cc1ccc(C(=O)Nc2ccc(Cl)c(-c3ccccn3)c2)c(Cl)c1)c1ncc(C(=O)NO)cn1` [Compound 263, 2-((3-Chloro-4-(4-chloro-3-(pyridin-2-yl)phenylcarbamoyl)benzyl) (methyl)amino)-N-hydroxypyrimidine-5-carboxamide], the IC50 in series [1] lay in the range of 10 to 100 nM; in series [2] (setting [3]), 100 to 1000 nM.

In turn, `O=C(NO)c1cnc(NS(=O)(=O)c2ccc(C(=O)Nc3ccc(Cl)c(-c4ccccn4)c3)c(Cl)c2)nc1` [Compound 265, 2-(3-Chloro-4-(4-chloro-3-(pyridin-2-yl)phenylcarbamoyl)phenylsulfonamido)-N-hydroxypyrimidine-5-carboxamide] yielded a half-maximal inhibitory concentration (IC50) in series [1] above 1000 nM.

The compound `O=C(NO)c1ccc(OCCNS(=O)(=O)c2ccc(C(=O)Nc3ccc(Cl)c(-c4ccccn4)c3)c(Cl)c2)cc1` [Compound 266, 2-Chloro-N-(4-chloro-3-(pyridin-2-yl)phenyl)-4-(N-(2-(4-(hydroxycarbamoyl)phenoxy)ethyl)sulfamoyl)benzamide] showed a melting point of 138 to 139 °C. In series [1], the half-maximal inhibitory concentration (IC50) is 100 to 1000 nM. This compound also registered an IC50 in series [2] (setting [3]) of 1 to 10 nM.

For `COc1cc(OC)cc(C(=O)Nc2ccc(Cl)c(-c3nc4ccc(N(C)C)cc4[nH]3)c2)c1` [Compound A, reference compound], the IC50 was 24 nM and 13.1 nM in series [2] (Gli-Luc reporter, numeric values for reference compounds); 17 nM in series [2] (S12, Gli-Luc reporter, numeric values for reference compounds).

The values above are taken from patent US10214514B2, “Hedgehog antagonists having zinc binding moieties” (Curis, Inc., priority 2011, dated 2019).
